Laboratory results reported in patent US11180495B2 (Abbisko Therapeutics Co., Ltd., priority 2017, dated 2021).
Read-outs that look alike come from different tables or passages of the source.

Experiments:
[1] = system: MV-4-11 human acute monocytic leukemia cells; experiment: FLT3-related cell proliferation experiment (Cell Titer Glo); format: cell-based; conditions: MV4-11, 72 h, MV-4-11 cells, 3 days, CTG, read-out: Cytological experiment FLT3 IC50
Description: (§1) Functional effects of compounds on the proliferation of several cell lines were evaluated by Cell Titer Glo (CTG) studies in the present invention, and effects of the compounds on the proliferation of different cells were evaluated to determine the selectivity degree of the compounds. In the study, M-07e human cytomegalic leukemia cells (cat. No. CBP60791) from Nanjing Kebai Biotechnology Co., Ltd. were cultured in an incubator under conditions of RPMI1640 (Gibco, cat. No. 11875-119), 20% fetal bovine serum (Gibco, 10099-141), human 10 ng/mL GM-CSF granulocyte macrophage colony-stimulating factors (R&D, cat. No. 215-GM-010), 37° C. and 5% CO2; and Kasumi-1 human acute myeloblastic leukemia cells (cat. No. CBP60524) were cultured in an incubator under conditions of RPMI1640 (Gibco, cat. No. 11875-119), 20% fetal bovine serum (Gibco, 10099-141), 37° C. and 5% CO2; NCI-H1703 human non-small cell lung squamous carcinoma cells (cat. No. CBP60115) were cultured in an incubator under conditions of RPMI1640 (Gibco, cat. No. 11875-119), 10% fetal bovine serum (Gibco, 10099-141), 37° C. and 5% CO2; and MV-4-11 human acute monocytic leukemia cells (cat. No. CBP60522) were cultured in an incubator under conditions of IMDM (Invitrogen, cat. No. 12440053), 20% fetal bovine serum (Gibco, 10099-141), 37° C. and 5% CO2. Since ATP is an index for viable cell metabolism, CTG (Promega, #G7573) reagent is a homogeneous detection method for detecting the number of viable cells in the culture by quantifying ATP. Therefore, compound-mediated inhibition for cell proliferation/survival was evaluated by quantifying ATP content in cells, and the specific experimental process was as follows.
III) MV-4-11 Human Acute Monocytic Leukemia Cell • 1.

[2] = system: NCI-H1703 human non-small cell lung squamous carcinoma cells; experiment: PDGFRA-related cell proliferation experiment (Cell Titer Glo); format: cell-based; conditions: 72 h, 3 days, CTG, read-out: Cytological experiment PDGFRA IC50
Description: as §1
II) NCI-H1703 Human Non-Small Cell Lung Squamous Carcinoma Cell • 1.

[3] = system: M-NFS-60 mouse myeloid leukemia lymphocytes; experiment: CSF-1R-related cell proliferation experiment (Cell Titer Glo); format: cell-based; conditions: 72 h, M-NFS-60 cells, 3 days, CTG
Description: Functional effects of compounds on cell proliferation were evaluated by using Cell Titer Glo (CTG) study in the present invention. M-NFS-60 mouse myeloid leukemia lymphocytes (cat. No. CCBJ078) from National Institutes For Food and Drug Control were cultured in the incubator under conditions of RPMI 1640 (Gibco, cat. No. 11875-119), 10% fetal bovine serum (Gibco, 10099-141), human 10 ng/mL M-CSF macrophage colony-stimulating factor (R&D, cat. No. MVN0915101), 37° C. and 5% CO2. Since ATP is an index for viable cell metabolism, CTG (Promega, #G7573) reagent is a homogeneous detection method for detecting the number of viable cells in the culture by quantifying ATP. Therefore, compound-mediated inhibition for cell proliferation/survival was evaluated by quantifying ATP in cells, and the specific experimental process was as follows: • 1. The cells were plated into a tissue-culture-medium-treated 96-well plate (Costar #3904) with 5,000 cells/well/80 μL fresh culture medium: • 2. 24 hours later, 10 μL culture medium containing testing compound with 10-fold of final concentration was added to each well; • 3. 10 μL of culture medium containing M-CSF with 10-fold of the final concentration was then added to each well: • 4. dosage effect was evaluated by testing the 3-fold serial dilutions of the compound; • 5. after the cells were incubated for 3 days at 37° C. and 5% CO2, the inhibition on cell survival was quantified after 50 μL of CTG was added and the luminescence assay was performed; • 6. the compound concentration leading to half maximal inhibitory (IC50) and the compound concentration leading to absolute half maximal inhibitory (Absolute IC50) were measured by a plate reader (M1000, Tecan) and a four-parameter curve fit in Graphpad Prism 7. D. CSF-1R-Related Cell Proliferation Experiment

[4] = system: M-07e human cytomegalic leukemia cells; experiment: KIT-related cell proliferation experiment (Cell Titer Glo); format: cell-based; conditions: 72 h, M-07e cells, SCF, 3 days, CTG, read-out: Cytological experiment KIT IC50
Description: as §1
I) M-07e Human Cytomegalic Leukemia Cell: • 1. The cells were plated into a tissue-culture-medium-treated 96-well plate (Costar #3904) with 3500 cells/well/80 μL fresh culture medium, and cultured for 24 hrs; • 2. the next day, 10 μL of culture medium containing testing compound with 10-fold of final concentration was added to each well; • 3.

CSF-1R = biological target: T1, CSF-1R (Homo sapiens, UniProt P07333); experiment: CSF-1R in vitro biochemical kinase study (ADP-Glo assay); conditions: 3.95 nM CSF-1R, 500 μM ATP, 30° C. 60 min, read-out: Enzymatic experiment CSF-1R IC50
T1 construct: 3.95 nM of CSF-1R, 500 μM of ATP and 0.2 mg/mL of polypeptide
Description: In the present invention, the inhibitory activity of compounds against the CSF-1R activity was determined by using CSF-1R ADP-Glo assay. The compound-mediated inhibition effect was achieved by inhibiting the production of ADP from consumption of ATP, and the activities of compounds were evaluated by using the ADP-Glo kit (Promega, cat. No. V9101). The specific experimental process was as follows: • 1. The kinase reaction performed in the present invention was carried out in a 384-well plate (Perkinelmer, cat. No. 6007290), and 3.95 nM of CSF-1R, 500 μM of ATP and 0.2 mg/mL of polypeptide (Poly (Glu4, Try1), Sigma, cat. No. P0275) were respectively weighed and added to each well: • 2. following reagents were then added to each well to reach the final reaction system: 40 mM Tris, pH 7.5, 20 mM MgCl2, 0.01% Triton X-100, 0.1 mg/mL BSA, 2.5 mM DTT and 0.1% DMSO; • 3. the reaction was conducted at 30° C. for 60 min; • 4. then an equal volume of stop solution (ADP-Glo) was added to the kinase reaction system; • 5. the mixed solution was incubated at 25° C. for 60 min, and the kinase reaction was then terminated; • 6. a two-fold volume of detection reagent was then added to each well; • 7. the mixed solution was incubated at 25° C. for 30 min; • 8. the compound IC50 value was measured by using a plate reader (Tecan, M1000) and a four-parameter curve was generated in Graphpad Prism. B. KIT/PDGFRA In Vitro Biochemical Kinase Study • 1. Preparation of 1-fold kinase buffer and stop solution • 1.1 1-fold kinase buffer: 50 mM HEPES, pH 7.5, 0.0015% Brij-35. • 1.2 stop solution: 100 mM HEPES, pH 7.5, 0.015% Brij-35, 0.2% Coating Reagent #3 50 mM EDTA • 2. Preparation of compound solution • 2.1 Dilution of compound solution • 1) The final concentration of the compound solution was 40 μM. and the concentration of the prepared stock solution was 50 times of the final concentration, i.e., 2 mM. • 2) 80 μL of 100% DMSO was added to the second well of the 96-well plate, then 20 μL of 10 mM compound solution was added, and thereby 2 mM compound solution was prepared, 60 μL of 100% DMSO was added to other wells, 20 μL of compound was taken from the second well, added to the third well and diluted by 4 times. This serial 4-time dilution was conducted in sequence for the total of 10 concentrations. • 2.2 5-fold compound solution transferred to a reaction plate • 1) 10 μL of solution was taken from each well of the above 96-well plate and added to another 96-well plate, and 90 μL of kinase buffer was added. • 2) 5 μL of solution was taken from the above 96-well plate and added to a 384-well reaction plate. • 2.3 Kinase reaction • 1) KIT/PDGFRA kinase was added to the 1-fold kinase buffer solution to obtain a 2.5-fold kinase solution. • 2) FAM-labeled polypeptide and ATP were added to the 1-fold kinase buffer solution to obtain a 2.5-fold substrate solution. • 3) 10 μL of 2.5-fold kinase solution was added to the 384-well reaction plate, which already contained 5 μL of 5-fold compound in 10% DMSO. And the mixed solution was incubated at room temperature for 10 min. • 4) 10 μL of 2.5-fold substrate solution was added to the 384-well reaction plate. • 5) Kinase reaction and termination: the mixed solution was incubated at 28° C. for a certain period of time, and 25 μL of stop solution was added to stop the reaction. • 2.4 Data reading of Caliper EZ Reader II • 2.5 Calculation of percent inhibition and IC50 • 1) Percent conversion data were copied from the Caliper EZ Reader. • 2) Percent conversion was converted into percent inhibition data, wherein, max referred to percent conversion of the DMSO control, and min referred to percent conversion of the negative control without kinase activity. Percent inhibition=(max−conversion)/(max−min)*100. • 3) The IC50 value was fitted with XLFit excel add-in version 5.4.0.8: Fitting formula: Y=Bottom+(Top−Bottom)/(1+(IC50/X)^HillSlope).

[5] = absolute half maximal inhibitory concentration, read-out: Cytological experiment CSF-1R Absolute IC50
[6] = read-out: Cytological experiment CSF1R IC50

T1 sequence (P07333 20-972): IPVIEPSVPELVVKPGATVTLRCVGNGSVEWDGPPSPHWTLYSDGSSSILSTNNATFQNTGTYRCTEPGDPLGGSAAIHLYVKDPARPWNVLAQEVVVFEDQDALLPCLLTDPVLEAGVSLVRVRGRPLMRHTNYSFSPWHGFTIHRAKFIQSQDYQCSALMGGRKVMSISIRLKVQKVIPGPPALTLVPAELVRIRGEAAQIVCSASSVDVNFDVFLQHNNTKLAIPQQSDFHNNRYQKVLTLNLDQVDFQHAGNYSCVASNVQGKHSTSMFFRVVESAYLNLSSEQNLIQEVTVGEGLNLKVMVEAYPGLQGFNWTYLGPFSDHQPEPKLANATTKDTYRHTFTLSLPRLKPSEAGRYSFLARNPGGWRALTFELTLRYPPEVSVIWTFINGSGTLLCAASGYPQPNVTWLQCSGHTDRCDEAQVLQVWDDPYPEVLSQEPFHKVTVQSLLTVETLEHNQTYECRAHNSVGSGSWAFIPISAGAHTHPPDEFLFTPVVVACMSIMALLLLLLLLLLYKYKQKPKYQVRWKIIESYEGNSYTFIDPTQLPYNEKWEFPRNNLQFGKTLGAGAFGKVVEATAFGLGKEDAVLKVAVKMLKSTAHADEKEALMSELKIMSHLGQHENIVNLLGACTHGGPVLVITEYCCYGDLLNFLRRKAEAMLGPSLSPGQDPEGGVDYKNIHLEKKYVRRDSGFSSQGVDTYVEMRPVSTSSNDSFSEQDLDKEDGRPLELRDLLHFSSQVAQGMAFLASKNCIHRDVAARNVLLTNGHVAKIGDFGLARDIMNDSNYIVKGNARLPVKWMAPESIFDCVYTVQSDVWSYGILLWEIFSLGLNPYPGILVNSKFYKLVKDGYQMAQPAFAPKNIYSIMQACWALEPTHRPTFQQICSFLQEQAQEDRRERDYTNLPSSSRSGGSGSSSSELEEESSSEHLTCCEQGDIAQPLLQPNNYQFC

CCN1CCCn2c1ncc(-c1ccc(Cc3c[nH]c4ncccc34)c(C)n1)c2=O [Example 19, 3-(5-((1H-pyrrolo[2,3-b]pyridin-3-yl)methyl)-6-methylpyridin-2-yl)-9-ethyl-6,7,8,9-tetrahydro-4H-pyrimido[1,2-a]pyrimidin-4-one]
IC50 [1]: 3040 nM | IC50 [2]: 3540 nM | IC50 [3, 5]: 56.4 nM | IC50 [3, 6]: 67.4 nM | IC50 [4]: 978 nM

Cc1nc(-c2cnc3n(c2=O)CCCN3C)ccc1C(=O)c1c[nH]c2ncccc12 [Example 24, 9-methyl-3-(6-methyl-5-(1H-pyrrolo[2,3-b]pyridine-3-carbonyl)pyridin-2-yl)-6,7,8,9-tetrahydro-4H-pyrimido[1,2-a]pyrimidin-4-one]
IC50 (CSF-1R): 168 nM | IC50 [3, 5]: 703 nM | IC50 [3, 6]: 534 nM

COCCOc1cnc2[nH]cc(Cc3ccc(-c4cnc(NC(C)C)[nH]c4=O)nc3C)c2c1 [Example 3, 2-(isopropylamino)-5-(5-((5-(2-methoxyethoxy)-1H-pyrrolo[2,3-b]pyridin-3-yl)methyl)-6-methylpyridin-2-yl)pyrimidin-4(3H)-one]
IC50 (CSF-1R): 39.1 nM | IC50 [3, 5]: 47.4 nM | IC50 [3, 6]: 50.8 nM

Cc1nc(-c2cnc(NC(C)C)n(C)c2=O)ccc1C(=O)c1c[nH]c2ncc(Cl)cc12 [Example 11, 5-(5-(5-chloro-1H-pyrrolo[2,3-b]pyridine-3-carbonyl)-6-methylpyridin-2-yl)-2-(isopropylamino)-3-methylpyrimidin-4(3H)-one]
IC50 (CSF-1R): 73.4 nM

Cc1nc(-c2cnc(NC(C)C)[nH]c2=O)ccc1Cc1c[nH]c2ncc(OCCO)cc12 [Example 4, 5-(5-((5-(2-hydroxyethoxy)-1H-pyrrolo[2,3-b]pyridin-3-yl)methyl)-6-methylpyridin-2-yl)-2-(isopropylamino)pyrimidin-4(3H)-one]
IC50 (CSF-1R): 36.4 nM | IC50 [3, 5]: 210 nM | IC50 [3, 6]: 235 nM

Cc1nc(-c2cnc(NC(C)C)[nH]c2=O)ccc1C(=O)c1c[nH]c2ncccc12 [Example 6, 2-(isopropylamino)-5-(6-methyl-5-(1H-pyrrolo[2,3-b]pyridine-3-carbonyl)pyridin-2-yl)pyrimidin-4(3H)-one]
IC50 (CSF-1R): 88.1 nM

Cc1nc(-n2ccc3c(ncn3C(C)C)c2=O)ccc1Cc1c[nH]c2ncc(Cl)cc12 [Example 25, 5-(5-((5-chloro-1H-pyrrolo[2,3-b]pyridin-3-yl)methyl)-6-methylpyridin-2-yl)-1-isopropyl-1,5-dihydro-4H-imidazo[4,5-c]pyridin-4-one]
IC50 (CSF-1R): 48.1 nM | IC50 [3, 5]: 622 nM | IC50 [3, 6]: 553 nM

Cc1nc(-c2cnc(NC(C)C)n(C)c2=O)ccc1C(C)c1c[nH]c2ncc(Cl)cc12 (stereo not drawn) [Example 12, 5-(5-(1-(5-chloro-1H-pyrrolo[2,3-b]pyridin-3-yl)ethyl)-6-methylpyridin-2-yl)-2-(isopropylamino)-3-methylpyrimidin-4(3H)-one]
IC50 (CSF-1R): 289 nM | IC50 [3, 5]: 296 nM | IC50 [3, 6]: 315 nM

CC(C)Nc1ncc(-c2ccc(Cc3c[nH]c4ncccc34)cn2)c(=O)[nH]1 [Example 2, 5-(5-((1H-pyrrolo[2,3-b]pyridin-3-yl)methyl)pyridin-2-yl)-2-(isopropylamino)pyrimidin-4(3H)-one]
IC50 (CSF-1R): 19.3 nM | IC50 [3, 5]: 39.9 nM | IC50 [3, 6]: 215 nM

Cc1nc(-c2cnc(NC(C)C)n(C)c2=O)ccc1C(O)c1c[nH]c2ncc(Cl)cc12 (stereo not drawn) [Example 9, 5-(5-((5-chloro-1H-pyrrolo[2,3-b]pyridin-3-yl)(hydroxy)methyl)-6-methylpyridin-2-yl)-2-(isopropylamino)-3-methylpyrimidin-4(3H)-one]
IC50 (CSF-1R): 315 nM

COC(c1ccc(-c2cnc(NC(C)C)n(C)c2=O)nc1C)c1c[nH]c2ncc(Cl)cc12 (stereo not drawn) [Example 8, 5-(5-((5-chloro-1H-pyrrolo[2,3-b]pyridin-3-yl)(methoxy)methyl)-6-methylpyridin-2-yl)-2-(isopropylamino)-3-methylpyrimidin-4(3H)-one]
IC50 (CSF-1R): 331 nM
